pIC50: −log10 of the molar value.
What was measured:
[1] = test system: B-cell acute lymphocytic leukemia (NALM6); assay: Anti-proliferative activity on NALM6 cell line; type: cell-based; conditions: Homo sapiens, NALM-6, 72 h, CellTiterGlo
Protocol: (§1) Leukemia/Lymphoma cell lines (ATCC) were diluted in vendor-recommended media and incubated in the absence or presence of inhibitor for 72 hours at 37° C./5% CO2 prior to viability determination using CellTiterGlo (Promega) per manufacturer's instruction. The human cell lines studied include acute T-cell leukemia (JURKAT), chronic myelogenous leukemia (K562), and B-cell acute lymphocytic leukemia (NALM6 and SUP-B15).

primary human T cells = assay: Anti-proliferative activity on T cells (CD3/CD28 stimulated, CellTiterGlo); type: cell-based; conditions: T-cell, 72 h, CD3/CD28 beads
Protocol: (§2) Fresh primary human T cells obtained from Analytical Biological Services (Wilmington, Del.) were diluted to 1×10^^6 cells per ml in AIM-V medium (Invitrogen), and stimulated with CD3/CD28 beads (Invitrogen) in the absence or presence of inhibitor for 72 hours at 37° C./5% CO2 prior to viability determination using CellTiterGlo (Promega) per manufacturer's instruction.
(§3) The 50% inhibitory concentration (IC50) is the concentration at which 50% of the maximal activity was inhibited.

[2] = test system: B-cell acute lymphocytic leukemia (SUP-B15); assay: Anti-proliferative activity on SUP-B15 cell line; type: cell-based; conditions: Homo sapiens, SUP-B15, 72 h, CellTiterGlo
Protocol: as §1

[3] = test system: chronic myelogenous leukemia (K562); assay: Anti-proliferative activity on K562 cell line; type: cell-based; conditions: Homo sapiens, K562, 72 h, CellTiterGlo
Protocol: as §1

primary human B cells = assay: Anti-proliferative activity on B cells (anti-IgM stimulated, CellTiterGlo); type: cell-based; conditions: B-cell, 72 h, anti-IgM 10 ug/ml
Protocol: as §2, with “human B” for “human T”, “with anti-IgM (10 ug/ml) (KPL)” for “with CD3/CD28 beads (Invitrogen)”
as §3

[4] = test system: acute T-cell leukemia (JURKAT); assay: Anti-proliferative activity on JURKAT cell line; type: cell-based; conditions: Homo sapiens, 72 h, CellTiterGlo
Protocol: as §1

Recombinant NAMPT enzyme = target: T1, Recombinant NAMPT enzyme (Homo sapiens, UniProt P43490); assay: Inhibition of NAMPT enzymatic activity; type: biochemical; conditions: 6 hours at 37° C., NMN product detected
T1 construct: purchased MBL
T1 sequence (P43490 whole entry): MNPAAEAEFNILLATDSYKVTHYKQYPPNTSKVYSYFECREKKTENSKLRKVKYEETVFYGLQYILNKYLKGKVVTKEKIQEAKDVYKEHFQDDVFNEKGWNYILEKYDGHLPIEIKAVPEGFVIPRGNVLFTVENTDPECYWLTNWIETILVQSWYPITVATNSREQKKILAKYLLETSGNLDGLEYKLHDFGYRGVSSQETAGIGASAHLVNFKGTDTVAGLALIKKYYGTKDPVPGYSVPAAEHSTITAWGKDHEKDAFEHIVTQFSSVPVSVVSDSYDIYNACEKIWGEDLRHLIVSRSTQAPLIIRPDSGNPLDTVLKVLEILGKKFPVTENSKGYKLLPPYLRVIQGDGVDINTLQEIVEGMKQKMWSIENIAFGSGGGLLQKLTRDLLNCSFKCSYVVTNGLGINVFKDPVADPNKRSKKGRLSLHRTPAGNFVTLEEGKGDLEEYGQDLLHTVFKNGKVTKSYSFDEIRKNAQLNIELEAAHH
Protocol: Recombinant NAMPT enzyme (MBL) was briefly pre-incubated in the absence or presence of inhibitor followed by addition of nicotinamide. Enzymatic reaction was allowed to proceed for 6 hours at 37° C. Reaction was terminated and NMN reaction product detected using the method as described in: Zhang R Y, Qin Y, Lv X Q, Wang P, Xu T Y, Zhang L, Miao C Y., Anal. Biochem. 2011 May 1; 412(1):18-25.
as §3

Compound	pIC50 [1]	pIC50 (primary human T cells)	pIC50 [2]	pIC50 [3]	pIC50 (primary human B cells)	pIC50 [4]	pIC50 (Recombinant NAMPT enzyme)
CCCN1CCC2(C=Cc3cc(-c4ccc(C(=O)NCc5cc(C)no5)cn4)ccc3O2)CC1 [N-((3-methylisoxazol-5-yl)methyl)-6-(1′-propylspiro[chromene-2,4′-piperidin]-6-yl)nicotinamide]	8.44	6.47	8.98	7.59	8.36	8.20	9.00
CCCN1CCC2(CC1)CC(=O)c1cc(-c3ccc(C(=O)NCc4cncs4)cn3)ccc1O2 [6-(4-oxo-1′-propylspiro[chroman-2,4′-piperidin]-6-yl)-N-(thiazol-5-ylmethyl)nicotinamide]	7.93	5.97	8.72	7.45	7.82	7.79	7.18
CC(C)N1CCC2(CC1)Oc1ccc(-c3ccc(C(=O)NCc4cncc(F)c4)cc3)cc1C(=O)N2C [N-((5-fluoropyridin-3-yl)methyl)-4-(1′-isopropyl-3-methyl-4-oxo-3,4-dihydrospiro[benzo[e][1,3]oxazine-2,4′-piperidin]-6-yl)benzamide]	8.45	6.00	9.22	7.55	8.22	8.15	8.46
CC(C)N1CCC2(CC1)Oc1ccc(-c3ccc(C(=O)NCc4cnn(C)c4)cn3)cc1C(=O)N2C [6-(1′-isopropyl-3-methyl-4-oxo-3,4-dihydrospiro[benzo[e][1,3]oxazine-2,4′-piperidin]-6-yl)-N-((1-methyl-1H-pyrazol-4-yl)methyl)nicotinamide]	6.91	5.21	7.68	6.20	7.01	6.74	7.82
CCCN1CCC2(CC1)CC(=O)c1cc(-c3ccc(C(=O)NCc4cncc(F)c4)cc3)ccc1O2 [N-((5-fluoropyridin-3-yl)methyl)-4-(4-oxo-1′-propylspiro[chroman-2,4′-piperidin]-6-yl)benzamide]	8.50	5.71	9.25	7.73	8.13	8.15	8.52
CCCCN1CCC2(CC1)CC(=O)c1cc(-c3ccc(C(=O)NCc4cncs4)cn3)ccc1O2 [6-(1′-butyl-4-oxospiro[chroman-2,4′-piperidin]-6-yl)-N-(thiazol-5-ylmethyl)nicotinamide]	8.24	5.73	8.99	7.70	7.61	8.05	7.52
CCc1cc(CNC(=O)c2ccc(-c3ccc4c(c3)C(=O)CC3(CCN(C(C)C)CC3)O4)cc2)on1 [N-((3-ethylisoxazol-5-yl)methyl)-4-(1′-isopropyl-4-oxospiro[chroman-2,4′-piperidin]-6-yl)benzamide]	8.13	5.76	8.64	7.35	7.67	7.91	9.00
CC(C)N1CCC2(CC1)CC(=O)c1cc(-c3ccc(C(=O)NCc4cccnc4F)cc3)ccc1O2 [N-((2-fluoropyridin-3-yl)methyl)-4-(1′-isopropyl-4-oxospiro[chroman-2,4′-piperidin]-6-yl)benzamide]	8.46	5.24	8.83	8.53	8.00	8.44	9.00
CCCCONC(=O)c1ccc(-c2ccc3c(c2)C(=O)CC2(CCN(C(C)C)CC2)O3)nc1 [N-butoxy-6-(1′-isopropyl-4-oxospiro[chroman-2,4′-piperidin]-6-yl)nicotinamide]	7.81	5.13	8.52	6.55	7.35	7.63	8.85
CC(C)N1CCC2(CC1)CC(=O)c1cc(-c3ccc(C(=O)NCc4cncc(F)c4)cc3)ccc1O2 [N-((5-fluoropyridin-3-yl)methyl)-4-(1′-isopropyl-4-oxospiro[chroman-2,4′-piperidin]-6-yl)benzamide]	8.06	5.48	8.96	7.10	8.10	7.69	8.26
CC(C)N1CCC2(CC1)Oc1ccc(-c3ccc(C(=O)CCc4cncs4)cc3)cc1C(=O)N2C [1′-isopropyl-3-methyl-6-(4-(3-(thiazol-5-yl)propanoyl)phenyl)spiro[benzo[e][1,3]oxazine-2,4′-piperidin]-4(3H)-one]	7.73	5.50	8.55	6.95	7.39	7.46	6.78
Cc1cc(CNC(=O)c2ccc(-c3ccc4c(c3)C(=O)NC3(CCN(C(C)C)CC3)O4)nc2)on1 [6-(1′-isopropyl-4-oxo-3,4-dihydrospiro[benzo[e][1,3]oxazine-2,4′-piperidin]-6-yl)-N-((3-methylisoxazol-5-yl)methyl)nicotinamide]	7.77	4.84	8.50	6.06	7.53	7.61	8.52
CCCN1CCC2(CC1)CC(=O)c1cc(-c3ccc(C(=O)NCc4cc(C)no4)cn3)ccc1O2 [N-((3-methylisoxazol-5-yl)methyl)-6-(4-oxo-1′-propylspiro[chroman-2,4′-piperidin]-6-yl)nicotinamide]	8.65	6.14	9.15	7.71	8.23	8.45	9.00
O=C(NCc1cncc(F)c1)c1ccc(-c2ccc3c(n2)C(=O)CC2(CCN(CC4CCC4)CC2)O3)cc1 [4-(1-(cyclobutylmethyl)-4′-oxo-3′,4′-dihydrospiro[piperidine-4,2′-pyrano[3,2-b]pyridin]-6′-yl)-N-((5-fluoropyridin-3-yl)methyl)benzamide]	7.31	5.40	8.14	6.48	7.08	6.81	7.18
Cc1ccc(CNC(=O)c2ccc(-c3ccc4c(c3)C(=O)N(C)C3(CCN(C(C)C)CC3)O4)cc2)cn1 [4-(1′-isopropyl-3-methyl-4-oxo-3,4-dihydrospiro[benzo[e][1,3]oxazine-2,4′-piperidin]-6-yl)-N-((6-methylpyridin-3-yl)methyl)benzamide]	8.28	5.34	9.18	7.55	7.82	8.12	8.70
CC(C)N1CCC2(CC1)CC(=O)c1cc(-c3ccc(C(=O)NCc4cnn(C)c4)cn3)ccc1O2 [6-(1′-isopropyl-4-oxospiro[chroman-2,4′-piperidin]-6-yl)-N-((1-methyl-1H-pyrazol-4-yl)methyl)nicotinamide]	6.99	5.25	7.85	6.52	7.22	6.68	7.85
Cc1ccc(CNC(=O)c2ccc(-c3ccc4c(c3)C(=O)CC3(CCN(C(C)C)CC3)O4)c(F)c2)cn1 [3-fluoro-4-(1′-isopropyl-4-oxospiro[chroman-2,4′-piperidin]-6-yl)-N-((6-methylpyridin-3-yl)methyl)benzamide]	7.97	5.07	8.65	5.76	7.27	7.67	8.70
CCN1CCC2(CC1)CC(=O)c1cc(-c3ccc(C(=O)NCc4cncs4)cn3)ccc1O2 [6-(1′-ethyl-4-oxospiro[chroman-2,4′-piperidin]-6-yl)-N-(thiazol-5-ylmethyl)nicotinamide]	7.67	5.47	8.29	6.74	7.29	7.36	6.57
COCCCN1CCC2(C=Cc3cc(-c4ccc(C(=O)NCc5cncs5)cn4)ccc3O2)CC1 [6-(1′-(3-methoxypropyl)spiro[chromene-2,4′-piperidin]-6-yl)-N-(thiazol-5-ylmethyl)nicotinamide]	7.86	5.24	8.77	7.07	7.34	–	7.25
